What was measured:
[1] = dissolution of CBD from a gelatine capsule in 2% RM-β-CD dissolution media; type: physicochemical; details: gelatine capsule with 1.0 mg pure CBD and 99 mg lactose, pH 6.6, n=6
[2] = 40% solution of HP-β-CD; cited from earlier work
[3] = oral administration, depending on the drug vehicle employed; cited from earlier work

Row | Compound | time in which CBD is not fully dissolved [1] | THC solution concentration obtained [2] | bioavailability [3]
1 | C=C(C)[C@@H]1CCC(C)=C[C@H]1c1c(O)cc(CCCCC)cc1O [CBD, cannabidiol] | > 3 h | – | –
2 | CCCCCc1cc(O)c2c(c1)OC(C)(C)[C@@H]1CCC(C)=C[C@@H]21 [THC, Δ^9-tetrahydrocannabinol] | – | 1 mg/mL | 6-20%

From patent publication US7592328B2, “Natural cyclodextrin complexes” (Pedipharm Oy, priority 2002, dated 2009)
